Tests used:
β3-integrin = β3-integrin phosphorylation in endothelial cells attached to collagen peptides, Western blot; format: cell-based, human; settings: PP2 10 μM vs DMSO; FIG. 7E
Protocol: (§1) Endothelial cells (HUVECs or HRMVECs) were incubated in serum free media with 1 mM MgCl2, 0.2 mM MnCl2 in the presence of a Src inhibitor, PP2, (10 μM) a P38MAPK inhibitor, SB202190 (10 μM) or vehicle only (DMSO) for 10 min at 37° C. Treated cells were then seeded on to immobilized P-1 and P-2 and lysates were collected at 15 min.
(§2) Whole cell and CAM tissue lysates were collected in RIPA buffer supplemented with 1× protease inhibitor and 1× phosphatase inhibitor and were run on polyacrylamide gels using denaturing conditions. Prior to loading the gels, 6× sample buffer was added to each of the lysates (final concentration 1×) and boiled for five minutes. Twenty to 50 μg of total protein were loaded into each lane. For detection of proteins larger than 50 kD, 10% gels were used; for proteins smaller than 50 kD 15% gels were used. […] Western blot bands were quantified using Image J software based on pixel intensity.
(§3) Because both RGD containing peptides bind αvβ3 coupled with the differential effect of these peptides on angiogenesis and inflammation, it was determined whether the RGD peptides differentially altered αvβ3-mediated signaling. […] Therefore, the differential phosphorylation of these protein kinases following the early mechanical-mediated interactions with the RGD containing collagen peptides was assessed. […]

YAP = test: Nuclear YAP in HRMVEC stimulated with soluble peptide, with Src or P38MAPK inhibitor; format: cell-based, human; settings: inhibitors 10 μM; FIGS. 8E and 8F
P38MAPK = P38MAPK phosphorylation in HUVECs attached to collagen peptides, Western blot; format: cell-based, human; settings: PP2 10 μM vs DMSO; FIG. 7F
Protocol: as §1
as §2, with “used. Gels were run at 60 volts (v) until the dye front passed through the stacking gel, and then the voltage was increased to 100V for the remainder of the separation. Precision Plus protein standards (Bio-Rad) were used to visualize migration. Protein was transferred to nitrocellulose membranes using a wet tank system and blocked for 1 h using 10% non-fat dried milk in tris-buffered saline with 0.01% Tween-20 (TBS-T).” for “used.”, “intensity. […]” for “intensity.”

[1] = tested on: chick chorioallantoic membrane (CAM); test: Chick CAM angiogenesis assay, induction by RGD collagen peptides; format: in vivo; settings: inhibitor SB202190 10 μM vs DMSO control; FIG. 6F
Protocol: (§4) The chick chorioallantoic membrane (CAM) assays were carried out with some modifications (19). For all experiments CAMs of 10-day-old chick embryos obtained from Charles River (North Franklin, CT) were separated from the shell membrane. Filter discs either non-treated (inflammation assays) pretreated (angiogenesis assays) with cortisone acetate (3.0 mg/ml) containing RPMI only or FGF-2 (40 ng). CAMs were either non-treated or treated topically with Mab XL313, XL166 or a non-specific control antibody (10 μg/embryo every 24 h for three consecutive treatments). […] At the end of the incubation period the embryos were sacrificed and the CAM tissues were analyzed. Angiogenesis was quantified by counting the number of angiogenic branching blood vessels within the area of the filter disc. The angiogenic index was determined by subtracting the mean number of blood vessel branch points from untreated CAMs from each experimental condition. Eight to twelve embryos were used per condition and experiments were repeated at least three times.
To examine this possibility, the effects of the RGDKGE (SEQ ID NO. 1) containing collagen peptide on angiogenesis and inflammation in the chick CAM were assessed.

[2] = tested on: chick chorioallantoic membrane (CAM); test: Chick CAM inflammation assay, FGF-2 induced, antibody treatment; format: in vivo; settings: chick CAM, FGF-2 stimulated; vs no treatment or control antibody; FIG. 3E
Protocol: as §4, with “Eight to twelve embryos were used per condition and experiments were repeated at least three times.” left out
The chick CAM has been routinely used to assess inflammation and granulation tissue formation, which are largely dependent on infiltration of chick heterophils (the avian equivalent of neutrophils), macrophages and activated fibroblasts (36,37). To study the potential differential biological impact of RGD epitopes, FGF-2 induced inflammation was examined by carrying out similar experiments in the absence of cortisone acetate and quantifying CAM thickening. […]

HRMVEC = test: Cell proliferation assay, HRMVEC; format: cell-based, human; settings: peptide 100 ng/ml, 24 hours; FIG. 8D
Protocol: (§5) HUVECs (WT, shYAP1 or control transfected) or HRMVECs were plated at 2,000 cells per well with complete EGM-2 media containing 2.0% FBS in the absence or presence of P-1, P-2 or P-C (100 ng/ml) and allowed to grow for 24 hours. Cell growth was monitored using a BrdU or MMT assay kits according to manufacturer's instructions. All assays were completed at least three times in triplicate wells.

Fak = Fak phosphorylation in endothelial cells attached to collagen peptides; format: cell-based, human; settings: serum free conditions
Protocol: as §2, with “used. Gels were run at 60 volts (v) until the dye front passed through the stacking gel, and then the voltage was increased to 100V for the remainder of the separation. Precision Plus protein standards (Bio-Rad) were used to visualize migration.” for “used.”
as §3

HUVEC = test: Cell proliferation assay, HUVEC; format: cell-based, human; settings: peptide 100 ng/ml, 24 hours; FIG. 8C
Protocol: as §5

[3] = tested on: chick chorioallantoic membrane (CAM); test: Chick CAM inflammation assay, induction by RGD collagen peptides; format: in vivo; settings: chick CAM, no cortisone acetate; FIG. 5D
Protocol: as §4
The effects of the soluble RGD containing collagen peptides on inflammation were examined.

[4] = tested on: human umbilical vein endothelial cell (HUVEC); test: Cell adhesion to immobilized RGD collagen peptides, HUVEC; format: cell-based; settings: peptides immobilized 100 μg/ml; 25 min at 37° C; FIG. 1A
Protocol: (§6) RGD peptides (P-1, P-2, P-3, P-4, P-5, and P-C) were immobilized (100 μg/ml) to wells. HUVEC, HMVEC, HRMVEC, and HDF cells were suspended in adhesion buffer (RPMI containing 1 mM MgCl2, 0.2 mM MnCl2 and 0.5% BSA) and 1×10^5 cells were seeded into the wells in the presence or absence of P4C10, LM609, P1F6 or control antibodies (100 μg/ml). Cells were allowed to attach for 25 min at 37° C. Media containing non-attached cells was aspirated and attached cells were washed with PBS and stained with crystal violet. Cell adhesion was quantified by measuring the optical density of eluted dye. Adhesion assays were completed at least three times with triplicate wells.

[5] = tested on: human retinal microvascular endothelial cells (HRMVEC); test: Cell adhesion to immobilized RGD collagen peptides, HRMVEC; format: cell-based; settings: peptides immobilized 100 μg/ml; FIG. 1C
Protocol: as §6

human dermal fibroblasts = test: Cell adhesion to immobilized RGD collagen peptides, HDF; format: cell-based; settings: peptides immobilized 100 μg/ml; FIG. 1D
Protocol: as §6

[6] = tested on: human microvascular endothelial cells (HMVEC); test: Cell adhesion to immobilized RGD collagen peptides, HMVEC; format: cell-based; settings: peptides immobilized 100 μg/ml; FIG. 1B
Protocol: as §6

[7] = tested on: endothelial cells in which YAP was knocked down; test: Cell proliferation assay, endothelial cells transduced with YAP specific shRNA; format: cell-based, human; settings: soluble peptide (FIG. 8H) or VEGF 50 ng/ml (FIG. 8I)
Protocol: as §5
Raw cells were transfected with 1 μg of HuSH shRNA plasmids for collagen type I, alpha 2 using Amaxa cell line nucleofector kit V (program #T024). Constructs expressing 21-nucleotide short hairpin RNAs (shRNA) targeting human YAP (shYAP) or non-targeting control (shNT, Sigma-Aldrich, SHC002) were used. Humantargeting shYAP1 lentiviral shRNA was obtained from the Thermo Scientific RNAi consortium (TRCN0000107625). Constructs were packaged into lentivirus, pseudotyped with the vesicular stomatitis virus glycoprotein. Transduction was performed by incubating cells with lentivirus, and stably transduced cells were subsequently used for studies. All cell lines were verified by morphology and mouse and human YAP-specific PCR. […] Endothelial cells were certified mycoplasma-negative by PCR (Lonza), and primary cell cultures were used within the indicated passage numbers. Cells were transduced and selected using puromycin.
Endothelial cells with YAP specific or non-specific shRNAs were transduced.

Molecule: CC(C)(C)n1nc(-c2ccc(Cl)cc2)c2c(N)ncnc21 [PP2, reference compound]
- β3 phosphorylation following binding to collagen peptide P-2, with inhibitor (β3-integrin): reduced
- reduction of nuclear YAP accumulation in P-2 stimulated endothelial cells as compared to control (YAP): approximately 50%
- P38MAPK phosphorylation following binding to collagen peptide P-2, with inhibitor (P38MAPK): reduced

Molecule: Oc1ccc(-c2nc(-c3ccncc3)c(-c3ccc(F)cc3)[nH]2)cc1 [SB202190, reference compound]
- effect on P-2 induced angiogenesis in the chick CAM [1]: reduced
- reduction of nuclear YAP accumulation in P-2 stimulated endothelial cells as compared to control (YAP): approximately 50%

Molecule: CC(=O)OCC(=O)[C@@]1(O)CC[C@H]2[C@@H]3CCC4=CC(=O)CC[C@]4(C)[C@H]3C(=O)C[C@@]21C [cortisone acetate, reference compound]
- reduction of CAMs exhibiting inflammation (thickening) [2]: greater than 80%

Molecule: KGDRGDAPG [Mab P-1, Synthetic RGDAPG containing collagen type-I peptide, Colla1 742-750; made with flanking cysteines (…)]
- HRMVEC growth with soluble peptide (HRMVEC): minimal effect
- Fak phosphorylation following ligation of peptide (Fak): Minimal Fak phosphorylation
- HUVEC growth with soluble peptide (HUVEC): minimal effect
- CAM inflammation following stimulation with peptide [3]: Minimal evidence of tissue inflammation

Molecule: QGPSGAPGE [P-C, reference compound]
- HUVEC adhesion to immobilized peptides [4]: failed to support adhesion
- CAM inflammation following stimulation with peptide [3]: Minimal evidence of tissue inflammation
- HRMVEC adhesion to immobilized peptides [5]: failed to support interactions
- HDF adhesion to immobilized peptides (human dermal fibroblasts): failed to support interactions
- HMVEC adhesion to immobilized peptides [6]: failed to support interactions

Molecule: RGPRGDQGP [Mab P-5, Synthetic RGD containing collagen type-I peptide, Colla2 819-827 (…)]
- HUVEC adhesion to immobilized peptides [4]: highest levels of adhesion

Molecule: VEGF
- endothelial cell growth in YAP knock down cells [7]: enhanced growth

Source: patent US11998600B2, “Enhancing the therapeutic activity of an immune checkpoint inhibitor” (MaineHealth, priority 2015, dated 2024)
